According to patent publication US20220257621A1, “CANCER CELL PROLIFERATION SUPPRESSION AGENT AND COMPOSITION FOR SUPPRESSING PROLIFERATION OF CANCER CELLS” (SHOWA DENKO K.K., priority 2019, published 2022):

What was measured:
[1] = system: cell line derived from Lewis lung carcinoma (LLC); assay: Effect (2) of suppressing proliferation of cancer cells, inositol derivative and Na tocopherol phosphate (WST-8); assay type: cell-based; conditions: Na tocopherol phosphate 10 μM and/or inositol derivative 0.001% by mass 24 h, then atmospheric dust 500 μg/mL 48 h, control without dust = 1, dust + 0.05% ethanol = 1.69
Procedure: The effect of the inositol derivative and Na tocopherol phosphate on suppressing the proliferation of cancer cells in a cell line derived from Lewis lung carcinoma (LLC, JCRB Cell Bank) was measured under the following conditions. As the following Na tocopherol phosphate, TPNa (registered trademark) (manufactured by Showa Denko K. K.), which is sodium d1-α-tocopheryl phosphate, was used.
The LLC cells were seeded at the seeding density of 50000 cells/cm^2 in a culture medium in which a Ham F10 medium and an L15 medium (both manufactured by Sigma-Aldrich) were mixed at the ratio of 3:7 (volume ratio), and cultured for 24 hours under the conditions of 37° C. and 5% CO2. Next, Na tocopherol phosphate alone (final concentration of 10 μM in the culture medium), the inositol derivative alone (final concentration of 0.001% by mass in the culture medium), or a combination of Na tocopherol phosphate (final concentration of 10 μM in the culture medium) and the inositol derivative (final concentration of 0.001% by mass in the culture medium) was added to the culture medium. […] Thereafter, the culture medium was replaced with a medium containing 10% (V/V) of WST-8 of Nacalai Tesque Inc., and after further culturing for 3 hours, the absorbance at the wavelength of 450 nm was measured with a microplate reader i-Control (manufactured by Tecan Group Ltd.). […]

[2] = system: normal human epidermal keratinocytes (NHEK); assay: Effect (2) of suppressing ROS production, inositol derivative and Na tocopherol phosphate; assay type: cell-based; conditions: Na tocopherol phosphate 10 μM and/or inositol derivative 0.001% by mass 24 h, then atmospheric dust 500 μg/mL 48 h, control without dust = 1, dust + 0.05% ethanol = 2.41
Procedure: The effect of the inositol derivative and Na tocopherol phosphate on suppressing ROS production in normal human epidermal keratinocytes (NHEK, manufactured by KURABO INDUSTRIES LTD.) was measured under the following conditions. As the following Na tocopherol phosphate, TPNa (registered trademark) (manufactured by Showa Denko K. K.), which is sodium d1-α-tocopheryl phosphate, was used.
The NHEK cells were seeded in a HuMedia KG2 medium manufactured by KURABO INDUSTRIES LTD. at the seeding density of 10000 cells/cm^2, and cultured for 24 hours under the conditions of 37° C. and 5% CO2. Next, Na tocopherol phosphate alone (final concentration of 10 μM in the culture medium), the inositol derivative alone (final concentration of 0.001% by mass in the culture medium), or a combination of Na tocopherol phosphate (final concentration of 10 μM in the culture medium) and the inositol derivative (final concentration of 0.001% by mass in the culture medium) was added to the culture medium. […] Thereafter, the ROS production amount was measured using a ROS assay kit (manufactured by OZ BIOSCIENCES). […] After washing the cells with PBS again, 100 μL of PBS was added, and the fluorescence intensity at an excitation wavelength of 485 nm/an absorption wavelength of 535 nm was measured with a microplate reader i-Control (manufactured by Tecan Group Ltd.). […]

`Cc1c(C)c2c(c(C)c1OP(=O)([O-])[O-])CCC(C)(CCCC(C)CCCC(C)CCCC(C)C)O2.[Na+].[Na+]` (stereo not drawn) [Na tocopherol phosphate, sodium d1-α-tocopheryl phosphate] was tested, and the “Relative cell proliferation amount” value [1] was 1.33 and the “Relative ROS production amount” value [2] was 1.53.
